Results: patent US6268391A, “Benzylidene-1,3-dihydro-indol-2-one derivatives a receptor tyrosine kinase inhibitors, particularly of Raf kinases” (Glaxo Wellcome Inc., priority 1997, dated 2001)

Biological target: T1, Human cRaf1 (Homo sapiens, UniProt P04049)
T1 construct: poly-histidine (C); made in house
Assay: Raf kinase assay (cRaf1 assay / Raf/MEK cascade assay)
Type: biochemical
Conditions: Table 3; read-out: Raf Kinase activity
Method: The potency of cRaf1 dependent kinase activity was measured using one of two assay formats. The first measured cRaf1 catalyzed phosphorylation of MEK1, the natural substrate for cRaf1. This assay is referred to as the cRaf1 assay. The second measured the ability of cRaf1 to phosphorylate and activate MEK1. This assay is referred to as the Raf/MEK cascade assay.
Human cRaf1 tagged with poly histidine at the carboxyterminus was expressed in a baculovirus expression system and purfied by Ni chelate affinity chromatography. Human MEK1 was expressed in E. coli as a fusion protein with Glutathione-S-transferase, and purified by glutathione sepharose affinity chromatography. […] Reactions contained cRaf1 (20 nM), MEK1 (100-500 nM), [γ-^32 P]ATP ([…]), Mg^2+ (10 mM), MOPS (50 mM, pH 7.5). Reactions were incubated at room temperature for periods of time ranging from 20-120 minutes. Inhibitors were diluted in 100% DMSO prior to addition to the assay. Reactions were terminated with an equal volume of 0.5% phosphoric acid. MEK1 phosphorylation was detected by scintillation counting following collection of protein onto phosphocellulose filters.
Human cRaf1 and MEK1 were purified as described above. A peptide substrate phosphorylated by MEK1 was used as the final phosphoryl group acceptor. […] Assay conditions were the same as those described above except for the following modifications. Reactions contained cRaf1 (1-5 nM), MEK1 (60 nM), and peptide ([…]).

T1 sequence (P04049 whole entry): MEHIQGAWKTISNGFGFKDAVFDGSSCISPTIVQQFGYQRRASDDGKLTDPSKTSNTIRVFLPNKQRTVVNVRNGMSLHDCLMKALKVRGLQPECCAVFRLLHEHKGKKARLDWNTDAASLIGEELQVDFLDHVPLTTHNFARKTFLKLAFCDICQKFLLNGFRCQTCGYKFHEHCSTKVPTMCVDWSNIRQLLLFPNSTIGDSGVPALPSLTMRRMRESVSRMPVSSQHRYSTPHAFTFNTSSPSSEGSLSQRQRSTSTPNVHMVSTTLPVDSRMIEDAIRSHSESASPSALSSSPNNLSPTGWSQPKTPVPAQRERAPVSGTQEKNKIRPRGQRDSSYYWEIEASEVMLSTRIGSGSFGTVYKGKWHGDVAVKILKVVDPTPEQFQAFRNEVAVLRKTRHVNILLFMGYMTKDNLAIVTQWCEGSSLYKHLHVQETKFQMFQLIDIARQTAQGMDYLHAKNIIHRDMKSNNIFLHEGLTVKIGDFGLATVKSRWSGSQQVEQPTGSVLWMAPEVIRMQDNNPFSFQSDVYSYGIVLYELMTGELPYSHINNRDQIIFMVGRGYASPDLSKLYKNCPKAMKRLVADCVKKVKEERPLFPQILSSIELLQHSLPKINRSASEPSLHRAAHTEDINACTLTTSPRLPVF

`O=C1Nc2ccc(S(=O)(=O)N3CCCC3)cc2C1=Cc1cc(Br)c(O)c(Br)c1` [Example 35, 3-(3,5-Dibromo-4-hydroxy-benzylidene)-5-(pyrrolidine-1-sulfonyl)-1,3-dihydro-indol-2-one] and `O=C1Nc2ccc([N+](=O)[O-])cc2C1=Cc1cc(Br)c(O)c(Br)c1` [Example 63, 3-(3,5-Dibromo-4-hydroxy-benzylidene)-5-nitro-1,3-dihydro-indol-2-one] cannot be ordered by IC50: under 1 µM for the first, under 1 µM for the second.

`CN(C)CCN(C)S(=O)(=O)c1ccc2c(c1)C(=Cc1cc(Br)c(O)c(Br)c1)C(=O)N2` [Example 36, 3-(3,5-Dibromo-4-hydroxy-benzylidene)-2-oxo-2,3-dihydro-1H-indol-5-sulfonic acid (N-2-dimethylamino-ethyl)-N-methyl-amide] and `O=C1Nc2ccc(Cl)cc2C1=Cc1cc(Br)c(O)c(Br)c1` [Example 38, 5-Chloro-3-(3,5-dibromo-4-hydroxy-benzylidene)-1,3-dihydro-indol-2-one] cannot be ordered by IC50: under 1 µM for the first, under 1 µM for the second.

`O=C1Nc2ccc(C(=O)c3ccno3)cc2C1=Cc1cc(Br)c(O)c(Br)c1` [Example 37, 3-(3,5-Dibromo-4-hydroxy-benzylidene)-5-(isoxazole-5-carbonyl)-1,3-dihydro-indol-2-one] and `CN(CCO)CC(=O)c1ccc2c(c1)C(=Cc1cc(Br)c(O)c(Br)c1)C(=O)N2` [Example 75] cannot be ordered by IC50: under 1 µM for the first, under 1 µM for the second.

`O=C1Nc2ccc(Cl)cc2C1=Cc1cc(Cl)c(O)c(Cl)c1` [Example 39, 5-Chloro-3-(3,5-dichloro-4-hydroxy-benzylidene)-1,3-dihydro-indol-2-one] and `O=C1Nc2ccc(Br)cc2C1=Cc1cc(Cl)c(O)c(Cl)c1` [Example 41, 5-Bromo-3-(3,5-dichloro-4-hydroxy-benzylidene)-1,3-dihydro-indol-2-one] cannot be ordered by IC50: under 1 µM for the first, under 1 µM for the second.

`O=C1Nc2ccc(OC(F)(F)F)cc2C1=Cc1cc(Br)c(O)c(Br)c1` [Example 40, 3-(3,5-Dibromo-4-hydroxy-benzylidene)-5-trifluoromethoxy-1,3-dihydro-indol-2-one] and `COc1cc(C=C2C(=O)Nc3ccc(OC(F)(F)F)cc32)cc(Br)c1O` [Example 61, 3-(3-Bromo-4-hydroxy-5-methoxy-benzylidene)-5-trifluoromethoxy-1,3-dihydro-indol-2-one] cannot be ordered by IC50: under 1 µM for the first, under 1 µM for the second.

`CCOc1cc(C=C2C(=O)Nc3ccc(I)cc32)cc(Br)c1O` [Example 42, 3-(3-Bromo-5-ethoxy-4-hydroxy-benzylidene)-5-iodo-1,3-dihydro-indol-2-one] and `COc1cc(C=C2C(=O)Nc3ccc(I)cc32)cc(Br)c1O` [Example 43, 3-(3-Bromo-4-hydroxy-5-methoxy-benzylidene)-5-iodo-1,3-dihydro-indol-2-one] cannot be ordered by IC50: under 1 µM for the first, under 1 µM for the second.

`O=C1Nc2ccc(Br)cc2C1=Cc1cc(I)c(O)c(I)c1` [Example 44, 5-Bromo-3-(3,5-diiodo-4-hydroxy-benzylidene)-1,3-dihydro-indol-2-one] and `O=C1Nc2ccc(Cl)cc2C1=Cc1cc(I)c(O)c(I)c1` [Example 55, 5-Chloro-3-(3,5-diiodo-4-hydroxy-benzylidene)-1,3-dihydro-indol-2-one] cannot be ordered by IC50: under 1 µM for the first, under 1 µM for the second.

`O=C1Nc2ccc(OC(F)(F)F)cc2C1=Cc1cc(I)c(O)c(I)c1` [Example 45, 3-(3,5-diiodo-4-Hydroxy-benzylidene)-5-trifluoromethoxy-1,3-dihydro-indol-2-one] and `O=C1Nc2ccc(OC(F)(F)F)cc2C1=Cc1cc(Cl)c(O)c(Cl)c1` [Example 60, 3-(3,5-Dichloro-4-hydroxy-benzylidene)-5-trifluoromethoxy-1,3-dihydro-indol-2-one] cannot be ordered by IC50: under 1 µM for the first, under 1 µM for the second.

First: COc1cc(C=C2C(=O)Nc3ccccc32)cc(Br)c1O [Example 46, 3-(3-Bromo-4-hydroxy-5-methoxy-benzylidene)-1,3-dihydro-indol-2-one]
Second: COc1cc(C=C2C(=O)Nc3ccccc32)cc(Cl)c1O [Example 49, 3-(3-Chloro-4-hydroxy-5-methoxy-benzylidene)-1,3-dihydro-indol-2-one]
The IC50 of the first is lower: under 1 µM for the first, 1 to 10 µM for the second. The first is the more potent here.

First: O=C1Nc2ccccc2C1=Cc1cc([N+](=O)[O-])c(O)c([N+](=O)[O-])c1 [Example 47, 3-(3,5-dinitro-4-Hydroxy-benzylidene)-1,3-dihydro-indol-2-one]
Second: O=C1Nc2ccc(Cl)cc2C1=Cc1cc([N+](=O)[O-])c(O)c([N+](=O)[O-])c1 [Example 52, 5-Chloro-3-(3,5-dinitro-4-hydroxy-benzylidene)-1,3-dihydro-indol-2-one]
The IC50 of the first is higher: 1 to 10 µM for the first, under 1 µM for the second. The second is the more potent here.

First: O=C1Nc2ccccc2C1=Cc1cc(Cl)c(O)c(Cl)c1 [Example 48, 3-(3,5-dichloro-4-Hydroxy-benzylidene)-1,3-dihydro-indol-2-one]
Second: O=C1Nc2c(Br)cccc2C1=Cc1cc(Cl)c(O)c(Cl)c1 [Example 67, 7-Bromo-3-(3,5-dichloro-4-hydroxy-benzylidene)-1,3-dihydro-indol-2-one]
The IC50 of the first is higher: 1 to 10 µM for the first, under 1 µM for the second. The second is the more potent here.

First: O=C1Nc2ccccc2C1=Cc1cc(I)c(O)c(I)c1 [Example 50, 3-(3,5-diiodo-4-Hydroxy-benzylidene)-1,3-dihydro-indol-2-one]
Second: O=C1Nc2c(I)cccc2C1=Cc1cc(Br)c(O)c(Br)c1 [Example 64, 3-(3,5-Dibromo-4-hydroxy-benzylidene)-7-iodo-1,3-dihydro-indol-2-one]
The IC50 of the first is higher: 1 to 10 µM for the first, under 1 µM for the second. The second is the more potent here.

`COc1cc(C=C2C(=O)Nc3ccc(Cl)cc32)cc(Br)c1O` [Example 51, 3-(3-Bromo-4-hydroxy-5-methoxy-benzylidene)-5-chloro-1,3-dihydro-indol-2-one] and `COc1cc(C=C2C(=O)Nc3ccc(Cl)cc32)cc(Cl)c1O` [Example 54, 5-Chloro-3-(3-chloro-4-hydroxy-5-methoxy-benzylidene)-1,3-dihydro-indol-2-one] cannot be ordered by IC50: under 1 µM for the first, under 1 µM for the second.

`COc1cc(C=C2C(=O)Nc3ccc(Cl)cc32)cc([N+](=O)[O-])c1O` [Example 53, 5-Chloro-3-(4-hydroxy-3-methoxy-5-nitro-benzylidene)-1,3-dihydro-indol-2-one] and `COc1cc(C=C2C(=O)Nc3ccc(Br)cc32)cc(Br)c1O` [Example 57, 5-Bromo-3-(3-bromo-4-hydroxy-5-methoxy-benzylidene)-1,3-dihydro-indol-2-one] cannot be ordered by IC50: under 1 µM for the first, under 1 µM for the second.

`CCOc1cc(C=C2C(=O)Nc3ccc(Br)cc32)cc(Br)c1O` [Example 56, 5-Bromo-3-(3-bromo-5-ethoxy-4-hydroxy-benzylidene)-1,3-dihydro-indol-2-one] and `CCOc1cc(C=C2C(=O)Nc3ccc([N+](=O)[O-])cc32)cc(Br)c1O` [Example 68, 3-(3-Bromo-5-ethoxy-4-hydroxy-benzylidene)-5-nitro-1,3-dihydro-indol-2-one] cannot be ordered by IC50: under 1 µM for the first, under 1 µM for the second.

`COc1cc(C=C2C(=O)Nc3cc(F)c(F)cc32)cc(Br)c1O` [Example 58, 3-(3-Bromo-4-hydroxy-5-methoxy-benzylidene)-5,6-difluoro-1,3-dihydro-indol-2-one] and `CCOc1cc(C=C2C(=O)Nc3ccc(OC(F)(F)F)cc32)cc(Br)c1O` [Example 59, 3-(3-Bromo-5-ethoxy-4-hydroxy-benzylidene)-5-trifluoromethoxy-1,3-dihydro-indol-2-one] cannot be ordered by IC50: under 1 µM for the first, under 1 µM for the second.

`O=C1Nc2c(cc([N+](=O)[O-])cc2[N+](=O)[O-])C1=Cc1cc(Br)c(O)c(Br)c1` [Example 62, 3-(3,5-Dibromo-4-hydroxy-benzylidene)-5,7-dinitro-1,3-dihydro-indol-2-one] and `O=C1Nc2ccc([N+](=O)[O-])cc2C1=Cc1cc(Cl)c(O)c(Cl)c1` [Example 65, 3-(3,5-Dichloro-4-hydroxy-benzylidene)-5-nitro-1,3-dihydro-indol-2-one] cannot be ordered by IC50: under 1 µM for the first, under 1 µM for the second.

`CN(CC(N)=O)CC(=O)c1ccc2c(c1)C(=Cc1cc(Br)c(O)c(Br)c1)C(=O)N2` [Example 69, 2-(N-{3-[3-(3,5 Dibromo-4-hydroxy-benzylidene)-2-oxo-2,3-dihydro-1H-indol-5-yl]-2-oxo-ethyl}-N-methyl-amino)-acetamide] and `O=C1Nc2ccc(C(=O)CN(CCO)CCO)cc2C1=Cc1cc(Br)c(O)c(Br)c1` [Example 74, 5-{2-[Bis-(2-hydroxy-ethyl)-amino]-acetyl}-3-(3,5-dibromo-4-hydroxy-benzylidene)-1,3-dihydro-indol-2-one] cannot be ordered by IC50: under 1 µM for the first, under 1 µM for the second.

`O=C1Nc2ccc(C(=O)CN(CCO)CCCO)cc2C1=Cc1cc(Br)c(O)c(Br)c1` [Example 70, 3-(3,5-Dibromo-4-hydroxy-benzylidene)-5-{2-[(N-2-hydroxy-ethyl)-N-(3-hydroxy-propyl)-amino]-acetyl}-1,3-dihydro-indol-2-one] and `O=C1Nc2ccc(C(=O)CN3CCSC3)cc2C1=Cc1cc(Br)c(O)c(Br)c1` [Example 76, 3-(3,5-Dibromo-4-hydroxy-benzylidene)-5-(2-(thiazolidin-3-yl)-acetyl)-1,3-dihydro-indol-2-one] cannot be ordered by IC50: under 1 µM for the first, under 1 µM for the second.

`O=C1Nc2ccc(C(=O)CN3CCSCC3)cc2C1=Cc1cc(Br)c(O)c(Br)c1` [Example 72] and `O=C1Nc2ccc(C(=O)CN3CCOCC3)cc2C1=Cc1cc(Br)c(O)c(Br)c1` [Example 73] cannot be ordered by IC50: under 1 µM for the first, under 1 µM for the second.
